# Source: patent publication US20230165242A1, “RODENTICIDAL BAIT AND METHOD OF CONTROLLING TARGET HARMFUL RODENTS” (priority 2020, published 2023)
# Experiments:
# [1] = system: warfarin-sensitive male OFA-Sprague-Dawley rats; experiment: Synergy of difethialone and cholecalciferol on warfarin-sensitive rats, gavage, survival; assay type: in vivo, rat; details: gavage once a day for 3 days; difethialone 125 μg/kg alone or combined with cholecalciferol 7.5 mg/kg; 20 days of observation
# From the text: A group of warfarin-sensitive male OFA-Sprague-Dawley rats (Charles River, L′Arbresles, France), aged 10 weeks and with a body weight between 160 and 180 g, are fed by gavage once a day for 3 consecutive days with a gavage solution containing difethialone (LIPHATECH, France) and cholecalciferol (Sigma-Aldrich, France) in a solvent consisting of 95% (v/v) of oil and 5% (v/v) of DMSO. During this period of gavage, the rats are fed with a conventional solid feed and water in unlimited amounts. The amounts of difethialone and cholecalciferol administered are 125 μg per kilogram of body weight of the rat fed by gavage and 7.5 mg per kilogram of body weight of the rat fed by gavage, respectively. The rats in two control groups, each consisting of OFA-Sprague-Dawley rats, are fed by gavage in the same conditions with gavage solutions containing difethialone alone (125 μg/kg) or cholecalciferol alone (7.5 mg/kg), respectively. The percentage of rats surviving gavage is recorded daily, for 20 days counting from the first day of gavage. The results presented [FIG. 3] show the variation of the percentage of rodents surviving (in %) as a function of time (t, in days) following the first day of gavage. The rats fed by gavage with the difethialone solution (♦) have 100% survival after 20 days of observation. […]
# [2] = system: warfarin-sensitive male OFA-Sprague-Dawley rats; experiment: Dose/rodenticidal response effect of difethialone on warfarin-sensitive rats; assay type: in vivo, rat; details: gavage, 21 days
# Protocol: A gavage solution containing difethialone (LIPHATECH, France) in a solvent consisting of 95% (v/v) of oil and 5% (v/v) of DMSO is administered once a day for 3 consecutive days to warfarin-sensitive male OFA-Sprague-Dawley rats (Charles River, L′Arbresles, France), aged 10 weeks and with a body weight between 160 and 180 g. During this period of gavage, the rats are fed with a conventional solid feed and water in unlimited amounts. The doses of difethialone administered to the OFA-Sprague-Dawley rats, given in Table 6 hereunder, are expressed in micrograms of difethialone administered per kilogram of body weight of the gavage-fed rodent.
# The percentage of rats surviving gavage is recorded daily for 21 days counting from the first day of gavage.
# [3] = system: warfarin-sensitive male OFA-Sprague-Dawley rats; experiment: Prothrombin level, Quick's time (difethialone gavage); assay type: in vivo, rat; details: difethialone solution 100 ppm, 1 mL/kg
# Protocol: Nine warfarin-sensitive male OFA-Sprague-Dawley rats (Charles River, L′Arbresles, France) are fed by gavage for 3 consecutive days with difethialone (LIPHATECH, France) in solution in a mixture consisting of 90% (v/v) of oil and 10% (v/v) of DMSO. The concentration of difethialone in the gavage solution is 0.1 g/kg (100 ppm). Each rat receives daily a volume of gavage solution calculated to correspond to 1 mL of gavage solution per kilogram of its body weight […]. 24 hours after the last gavage, a volume of blood is taken from each rat by intracardiac puncture and placed in a specimen tube containing sodium citrate. The animals are euthanized after puncture and the plasma is prepared by centrifugation. […] Quick's time (or clotting time) is evaluated on the plasma supplemented with sodium citrate, then decalcified and recalcified in the presence of calcium thromboplastin. Quick's time is evaluated by means of an optical device for clotting analysis (Option 2plus, Bio Mèrieux®). The average Quick's time measured on the plasma from the rats fed by gavage with difethialone is 23.4 seconds (±6.1). For comparison, the average Quick's time of control rats fed by gavage with the solution without difethialone is 17.5 seconds (±2.1). The difference in values of Quick's time of the rats fed by gavage with the difethialone solution and with the control solution without difethialone is not significant.
# [4] = system: Female Sprague-Dawley rats that are homozygotic carriers of the Y139F mutation in the Vkorc1 gene; experiment: Synergy of difethialone and cholecalciferol on warfarin-resistant female Sprague-Dawley Y139F rats; assay type: in vivo, rat; details: gavage once a day for 3 days; difethialone 0.125 mg/kg alone, cholecalciferol 7.5 mg/kg alone, or both combined; 22 days of observation
# From the text: Female Sprague-Dawley rats that are homozygotic carriers of the Y139F mutation in the Vkorc1 gene, aged 10 weeks, are acclimatized for 5 days in the presence of a conventional solid feed and water in unlimited amounts. These female Sprague-Dawley Y139F rats are fed by gavage once a day for 3 consecutive days with a gavage solution containing difethialone (LIPHATECH, France) and cholecalciferol (Sigma-Aldrich, France) in a solvent consisting of 95% (v/v) of oil and 5% (v/v) of DMSO. During this period of gavage, the rats are fed with a conventional solid feed and water in unlimited amounts. The amounts of difethialone and cholecalciferol administered are 0.125 mg per kilogram of body weight of the rat fed by gavage and 7.5 mg per kilogram of body weight of the rat fed by gavage, respectively. The rats in two control groups, each consisting of OFA-Sprague-Dawley […] rats, are fed by gavage in the same conditions with gavage solutions containing, respectively, difethialone alone so as to administer an amount of difethialone corresponding to 0.125 mg per kilogram of body weight of the rat fed by gavage and cholecalciferol alone so as to administer an amount of cholecalciferol corresponding to 7.5 mg per kilogram of body weight of the rat fed by gavage. The percentage of rats surviving gavage is noted daily for 21 days counting from the first day of gavage. […]
# [5] = system: male Sprague-Dawley rats that have undergone introgression, homozygotic carriers of the Y139F mutation in the Vkorc1 gene; experiment: Dose/rodenticidal response effect of difethialone on warfarin-resistant male Y139F rats; assay type: in vivo, rat; details: for Mortality, %: gavage, 21 days
# Protocol: A gavage solution containing difethialone (LIPHATECH, France) in a solvent consisting of 95% (v/v) of oil and 5% (v/v) of DMSO is administered once a day for 3 consecutive days to male Sprague-Dawley rats that have undergone introgression, which are homozygotic carriers of the Y139F mutation in the Vkorc1 gene. During this period of gavage, the rats are fed with a conventional solid feed and water in unlimited amounts. The doses of difethialone administered to the Sprague-Dawley rats that have undergone introgression, given in Table 9 hereunder, are expressed in micrograms of difethialone administered per kilogram of body weight of the gavage-fed rodent.
# The percentage of rats surviving gavage is noted daily for 21 days counting from the first day of gavage. 100% of the Sprague-Dawley rats that had undergone introgression survive gavage for 3 days with 0.125 mg of difethialone per kilogram of body weight per day.
# [6] = system: warfarin-sensitive male OFA-Sprague-Dawley rats; experiment: Synergy of bromadiolone and cholecalciferol, gavage, survival; assay type: in vivo, rat; details: gavage 5 consecutive days; bromadiolone 0.1 mg/kg alone, cholecalciferol 7.5 mg/kg alone, or both combined; after 20 days of observation
# From the text: A group of 10 warfarin-sensitive male OFA-Sprague-Dawley rats (Charles River, L′Arbresles, France), aged 10 weeks and with a body weight between 160 and 180 g, are fed by gavage for 5 consecutive days with a gavage solution containing bromadiolone (LIPHATECH, France) and cholecalciferol (Sigma-Aldrich, France) in a solvent consisting of 95% (v/v) of oil and 5% (v/v) of DMSO. During this period of gavage, the rats are fed with a conventional solid feed and water in unlimited amounts. The rats are fed by gavage with a volume of this gavage solution so as to administer an amount of bromadiolone corresponding to 0.1 mg of bromadiolone per kilogram of body weight of the rat fed by gavage and an amount of cholecalciferol corresponding to 7.5 mg of cholecalciferol per kilogram of body weight of the rat fed by gavage. The rats in two control groups, each consisting of 10 male OFA-Sprague-Dawley rats, are fed by gavage in the same conditions with gavage solutions containing, respectively, bromadiolone alone so as to administer an amount of bromadiolone corresponding to 0.1 mg of bromadiolone per kilogram of body weight of the rat fed by gavage and cholecalciferol alone so as to administer an amount of cholecalciferol corresponding to 7.5 mg of cholecalciferol per kilogram of body weight of the rat fed by gavage. […]
# [7] = system: warfarin-sensitive male OFA-Sprague-Dawley rats; experiment: Prothrombin level, Quick's time (bromadiolone / cholecalciferol gavage); assay type: in vivo, rat
# From the text: Warfarin-sensitive male OFA-Sprague-Dawley rats (Charles River, L′Arbresles, France) are fed by gavage for 3 consecutive days with a gavage solution containing bromadiolone (LIPHATECH, France) and cholecalciferol (Sigma-Aldrich, France) in a solvent consisting of 95% (v/v) of oil and 5% (v/v) of DMSO. During this period of gavage, the rats are fed with a conventional solid feed and water in unlimited amounts. The concentrations of bromadiolone and cholecalciferol in the gavage solution are 0.1 g/kg (100 ppm) and 7.5 g/kg (7500 ppm) respectively. Each rat receives daily a volume of gavage solution calculated to correspond to 1 mL of gavage solution per kilogram of body weight. The OFA-Sprague-Dawley rats in two control groups are fed by gavage in the same conditions with gavage solutions containing bromadiolone (alone) at a concentration of 100 ppm or cholecalciferol (alone) at a concentration of 7500 ppm, respectively. 24 hours after the last gavage, a volume of blood is taken from each rat by intracardiac puncture and placed in a specimen tube containing sodium citrate. The animals are euthanized after puncture and the plasma is prepared by centrifugation. Quick's time (or clotting time) is evaluated on the plasma supplemented with sodium citrate, then decalcified and recalcified in the presence of calcium thromboplastin. Quick's time is evaluated by means of an optical device for clotting analysis (Option 2plus, Bio Mèrieux®). The results are presented [FIG. 2]. The average Quick's time measured on the plasma from the rats fed by gavage with bromadiolone (bar “B”) is 12.4 seconds (±1.8), the average Quick's time measured on the plasma from the rats fed by gavage with cholecalciferol (bar “C”) is 12.4 seconds (±0.9) and the average Quick's time measured on the plasma from the rats fed by gavage with the composition comprising bromadiolone and cholecalciferol (bar “D”) is 14.1 seconds (±2.7). The differences in values of Quick's time measured between the three groups of rats are not significant. The rats in the group of rats that received the combination of bromadiolone and cholecalciferol coagulate in the same way as the rats in the group of rats that received the gavage solution containing bromadiolone on the one hand and the rats in the group of rats that received the gavage solution containing cholecalciferol on the other hand. Quick's time for rats treated with a control solution formed from oil (95%, v/v) and DMSO (5%, v/v) is (bar “A”) 12.8 seconds (±2.3). Neither the gavage solution containing bromadiolone in combination with cholecalciferol, nor the gavage solution containing bromadiolone alone, nor the gavage solution containing cholecalciferol induces an increase of Quick's time relative to the control. […]
# [8] = in vivo; cited from earlier work
# [9] = dose 100 μg/kg once a day for 3 days
# [10] = dose 500 μg/kg once a day for 3 days
smiles,measurement,setting,value
"O=c1sc2ccccc2c(O)c1C1CC(c2ccc(-c3ccc(Br)cc3)cc2)Cc2ccccc21 (stereo not shown) [difethialone, 3-(4′bromobiphenyl-4-yl)-1-(4-hydroxythiocoumarin-3-yl)-1,2,3,4-tetrahydronaphthalene]",percentage of rats surviving,[1],100%
same,"Mortality, %",[2]; dose 50 μg/kg once a day for 3 days,0%
same,"Mortality, %",[2]; [9],0%
same,"Mortality, %",[2]; dose 150 μg/kg once a day for 3 days,40%
same,"Mortality, %",[2]; dose 200 μg/kg once a day for 3 days,100%
same,"Mortality, %",[2]; [10],100%
same,anticoagulant effect (increase in Quick's time relative to the control),[3]; 3 daily gavages,not anticoagulating
same,haemorrhagic sign,[3]; 3 daily gavages,No haemorrhagic sign
same,average Quick's time (clotting time),[3]; plasma 24 hours after last of 3 daily gavages,23.4 s
same,percentage of rats surviving,[4],100%
same,"Mortality, %",[5]; [9],0%
same,"Mortality, %",[5]; dose 125 μg/kg once a day for 3 days,0%
same,"Mortality, %",[5]; dose 250 μg/kg once a day for 3 days,100%
same,"Mortality, %",[5]; [10],100%
same,rats surviving gavage,[5]; gavage for 3 days with 0.125 mg of difethialone per kilogram of body weight per day,100%
"O=c1oc2ccccc2c(O)c1C(CC(O)c1ccc(-c2ccc(Br)cc2)cc1)c1ccccc1 (stereo not shown) [bromadiolone, 3-[3-(4′-bromo[1,1′-biphenyl]-4-yl)-3-hydroxy-1-phenylpropyl]-4-hydroxy-2H-1-benzopyran-2-one]",percentage of rats surviving,[6],100%
same,anticoagulant effect (increase of Quick's time relative to the control),"[7]; 3 daily gavages, bromadiolone 100 ppm and/or cholecalciferol 7500 ppm solution, 1 mL/kg",not anticoagulants
same,average Quick's time (clotting time),"[7]; plasma 24 hours after last of 3 daily gavages, 1 mL/kg of solution with bromadiolone 100 ppm and/or cholecalciferol 7500 ppm",12.4 s
"C=C1/C(=C\C=C2/CCC[C@]3(C)[C@@H]([C@H](C)CCCC(C)(C)O)CC[C@@H]23)C[C@@H](O)C[C@@H]1O [Calcitriol, 1,25-dihydroxycholecalciferol]",half-life in the body,[8],~5 h
